Laboratory results from patent USH1427H, “Substituted flavonoid compounds, their salts, their manufacture and their use in combination with interleukin-2” (priority 1992, dated 1995).

Tests used:
[1] = test system: serum IFN; format: in vivo; settings: Table 1
[2] = test system: YAC-1 tumor target; experiment: Augmentation of NK activity, 4-hr 51Cr release assay with effector leukocytes from treated animals; format: in vivo, mice; settings: Table 1
From the text: The immunomodulatory activity of boosting NK activity is readily determined in accordance with the protocol outlined by Wiltrout et al. in J. Exp. Med. (1984), vol. 160, p. 1431-1449, which is hereby incorporated by reference. Using this protocol, the flavonoid compounds of the present invention must be capable of boosting NK activity at least 2-fold, preferably at least 3-fold, and most preferably at least 4-fold, as measured in lytic units. (See "In Vitro Methods in Cell Mediated and Tumor Immunity", eds. Barry R. Bloom and John R. David, pub. Academic Press (1976), p. 427, for the definition of lytic units.)
Assessment of NK activity. […] Effector leukocytes were isolated from spleen, peritoneal cavity, lungs, and liver as previously described (J. Exp. Med., vol. 160, 1431 (1984) and J. Immunol., vol. 135, 1477 (1985)). NK activity was expressed as either [formula] or LU/1×10^7 cells, with one LU being the number of effector cells required to lyse 20% or 40% of the target cells. Statistical comparisons in NK activity were performed by the student's t-test.
Peak levels of NK-mediated lysis were generally achieved by 24 hour post injection, with levels of NK activity decreasing to background by about day 6.

[3] = test system: Renca renal adenocarcinoma; experiment: Survival of Renca-bearing mice treated with flavonoid and/or rIL-2; format: in vivo, BALB/C mice; settings: Table 1, flavonoid plus rIL-2
Method: Tumor model. The model used for these studies is the Renca renal adenocarcinoma, a tumor that originated spontaneously and is maintained by serial transplant in BALB/C mice (JNCI, vol. 50, 1013 (1973)). […] After injection of 1×10^5 tumor cells under the renal capsule, the solid tumor mass develops rapidly with direct extension to the peritoneal cavity by days 7 to 9 and metastasis to regional lymph nodes and the liver shortly thereafter. […] Flavonoid was administered by injection of 125 mg/kg i.v. and 125 mg/kg i.p., whereas various doses of rIL-2 were delivered by the i.p. route. Routinely, flavonoid was administered 2 to 4 h after nephrectomy of the primary tumor-bearing kidney on day 11, and rIL-2 was administered once per day for 4 successive days beginning on the day after nephrectomy and FAA treatment. Statistical analysis of survival data was performed by the .chi.^2 test.
The flavonoid compound was administered by injection of e.g. 125 mg/kg i.v. and e.g. 125 mg/kg i.p., whereas various doses of rIL-2 were delivered by the i.p. route. Routinely, flavonoid compound was administered 2 to 4 hours after nephrectomy of the primary tumor-bearing kidney on day 11 and rIL-2 was administered once per day for 4 successive days beginning on the day after nephrectomy and flavonoid treatment. Statistical analysis of survival data was performed by the .chi.^2 test.
BALB/C mice (e.g. 10/group) were injected i.v. with 1×10^5 Renca tumor cells on day 0. On day 11 the tumor-bearing kidney was removed and 2 to 4 h later flavonoid (125 mg/kg i.v.+125 mg/kg i.p.) was administered to appropriate groups. Subsequently, beginning on day 12, some of the flavonoid pretreated mice and two groups of previously untreated mice received four daily i.p. injections of rIL-2 at doses of 30,000 U/day. Mice were then monitored for survival and statistical analyses performed by the .chi.^2 test.

[4] = Preliminary preclinical therapeutic synergy between coumarin and rIL2; format: in vivo; settings: preliminary preclinical experiments
From the text: In another publication, Wiltrout et al., J. Natl. Cancer Inst.

[5] = test system: metastatic renal cell cancer; settings: clinical trial, selected patients; Marshal et al.; cited from earlier work
[6] = test system: Renca murine renal cancer; settings: combined doxorubicin and adoptive immunotherapy with rIL-2; cited from earlier work
[7] = test system: Lewis lung carcinoma; settings: cited from earlier work
[8] = test system: interferon; settings: preliminary studies, Wiltrout et al.; cited from earlier work
[9] = test system: natural killer activity; settings: cited from earlier work
[10] = test system: established murine renal cancer; settings: established murine renal cancer in BALB/c mice; cited from earlier work
[11] = test system: natural killer activity; settings: preliminary studies, Wiltrout et al.; cited from earlier work

O=C(O)Cc1cccc2c(=O)cc(-c3ccco3)oc12 [LM2888]
IFN [1]: I | NK [2]: + | Synergistic Therapy With IL-2 [3]: I

COc1cccc(-c2cc(=O)c3cccc(CC(=O)O)c3o2)c1 [LM2889]
IFN [1]: + | NK [2]: + | Synergistic Therapy With IL-2 [3]: +

C=C(C(=O)O)c1cccc2c(=O)cc(-c3ccccc3)oc12 [LM2891]
IFN [1]: + | NK [2]: + | Synergistic Therapy With IL-2 [3]: +

O=c1ccc2ccccc2o1 [coumarin]
therapeutic synergy between coumarin and rIL2 [4]: no therapeutic synergy was observed | anti-tumor activity in patients with metastatic renal cell cancer [5]: demonstrated anti-tumor activity

COc1cccc2c1C(=O)c1c(O)c3c(c(O)c1C2=O)C[C@@](O)(C(=O)CO)C[C@@H]3O[C@H]1C[C@H](N)[C@H](O)[C@H](C)O1 [doxorubicin]
treatment of Renca murine renal cancer [6]: successfully treated

O=C(O)Cc1cccc2c(=O)cc(-c3ccccc3)oc12 [flavone-8-acetic acid]
susceptibility of Lewis lung carcinoma cells implanted in diffusion chambers in the peritoneum ([7]; administered ip, diffusion chambers, Finlay et al.): not susceptible | anti-tumor effects against Lewis lung carcinoma ([7]; in vivo, mice, Finlay et al.): pronounced anti-tumor effects | tumoricidal activity in vivo compared with direct cytotoxic effects in vitro ([7]; mouse, in vivo): more pronounced and occurs more rapidly in vivo than direct cytotoxic effects observed in vitro | induction of interferon in vitro [8]: failed to detect induction of interferon | natural killer activity, flavone-8-acetic acid plus rIL-2 ([9]; combination with rIL-2, normal and tumor-bearing mice, Wiltrout et al.): synergistically augmented natural killer activity | natural killer activity in nonlymphoid organs (liver and lungs) as well as in the spleen ([9]; liver, lungs, spleen, Wiltrout et al.): could augment natural killer activity in nonlymphoid organs (liver and lungs) as well as in the spleen | splenic natural killer activity ([9]; spleen, Ching et al.): augments splenic natural killer activity | anti-tumor effects, combination of flavone-8-acetic acid plus interleukin-2 [10]: synergistic anti-tumor effects | augmentation of natural killer activity in vitro [11]: failed to detect
